Laboratory results reported in ChEMBL document CHEMBL3227989, “Coenzyme--substrate adducts as inhibitors of mouse liver 3,4-dihydroxyphenylalanine decarboxylase” (J Med Chem, 1979).
Values belong to the molecule of their own block, whether it stands above or below them.

Columns and labels:
[1] = molecular target: T1, Aromatic-L-amino-acid decarboxylase (Mus musculus) (UniProt O88533); test: Inhibition of ICR Swiss mouse liver dopa decarboxylase at 2 X 10^-5 M after 15 mins
T1 sequence (whole entry): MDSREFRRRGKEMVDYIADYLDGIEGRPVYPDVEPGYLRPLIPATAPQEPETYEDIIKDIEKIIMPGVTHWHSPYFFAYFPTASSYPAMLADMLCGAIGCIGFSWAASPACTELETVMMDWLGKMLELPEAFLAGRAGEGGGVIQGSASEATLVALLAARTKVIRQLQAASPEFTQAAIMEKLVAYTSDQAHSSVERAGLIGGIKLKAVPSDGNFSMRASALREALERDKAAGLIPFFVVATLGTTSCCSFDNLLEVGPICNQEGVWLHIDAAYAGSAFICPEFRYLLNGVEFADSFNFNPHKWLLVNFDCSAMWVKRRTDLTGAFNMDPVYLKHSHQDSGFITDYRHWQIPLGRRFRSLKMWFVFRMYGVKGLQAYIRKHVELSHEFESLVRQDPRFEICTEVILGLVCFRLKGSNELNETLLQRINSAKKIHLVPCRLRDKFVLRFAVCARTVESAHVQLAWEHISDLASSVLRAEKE

[2] = molecular target: T1, Aromatic-L-amino-acid decarboxylase (Mus musculus); test: Inhibition of ICR Swiss mouse liver dopa decarboxylase at 10^-3 M after 15 mins
[3] = molecular target: T2, Aromatic-L-amino-acid decarboxylase (Mus musculus, UniProt O88533); test: Inhibition of ICR Swiss mouse liver dopa decarboxylase after 15 mins
T2 sequence (O88533 whole entry): T1 sequence (whole entry)

[4] = molecular target: T1, Aromatic-L-amino-acid decarboxylase (Mus musculus); test: Inhibition of ICR Swiss mouse liver dopa decarboxylase at 2 X 10^-3 M after 15 mins
[5] = molecular target: T1, Aromatic-L-amino-acid decarboxylase (Mus musculus); test: Inhibition of ICR Swiss mouse liver dopa decarboxylase at 2 X 10^-4 M after 15 mins
[6] = molecular target: T1, Aromatic-L-amino-acid decarboxylase (Mus musculus); test: Inhibition of ICR Swiss mouse liver dopa decarboxylase at 10^-5 M after 15 mins
[7] = molecular target: T1, Aromatic-L-amino-acid decarboxylase (Mus musculus); test: Inhibition of ICR Swiss mouse liver dopa decarboxylase at 10^-4 M after 15 mins
[8] = compound: Cc1ncc(COP(=O)(O)O)c(CN[C@@H](Cc2ccc(O)c(O)c2)C(=O)O)c1O; test: Inhibition of pig liver dopa decarboxylase; settings: Sus scrofa

Molecule: Cc1ncc(COP(=O)(O)O)c(C2NC(C(=O)O)Cc3cc(O)c(O)cc32)c1O (racemic)
inhibition [2]: < 10%

Molecule: Cc1ncc(COP(=O)(O)O)c(CNC(Cc2ccccc2O)C(=O)O)c1O (racemic)
inhibition [4]: 62%
inhibition [1]: 53%

Molecule: Cc1cnc(C)c(O)c1CNC(Cc1ccc(O)c(O)c1)C(=O)O (racemic)
inhibition [4]: 50%
inhibition [5]: 15%

Molecule: Cc1ncc(COP(=O)(O)O)c(CN[C@@H](Cc2ccccc2)C(=O)O)c1O
inhibition [6]: 17%
inhibition [4]: 85%
inhibition [2]: 83%
inhibition [7]: 57%

B1: Aromatic-L-amino-acid decarboxylase (Sus scrofa), P80041 (protein)
chain: MNASDFRRRGKEMVDYMADYLEGIEGRQVYPDVQPGYLRPLIPATAPQEPDTFEDILQDVEKIIMPGVTHWHSPYFFAYFPTASSYPAMLADMLCGAIGCIGFSWAASPACTELETVMMDWLGKMLQLPEAFLAGEAGEGGGVIQGSASEATLVALLAARTKVVRRLQAASPGLTQGAVLEKLVAYASDQAHSSVERAGLIGGVKLKAIPSDGKFAMRASALQEALERDKAAGLIPFFVVATLGTTSCCSFDNLLEVGPICHEEDIWLHVDAAYAGSAFICPEFRHLLNGVEFADSFNFNPHKWLLVNFDCSAMWVKRRTDLTGAFKLDPVYLKHSHQGSGLITDYRHWQLPLGRRFRSLKMWFVFRMYGVKGLQAYIRKHVQLSHEFEAFVLQDPRFEVCAEVTLGLVCFRLKGSDGLNEALLERINSARKIHLVPCRLRGQFVLRFAICSRKVESGHVRLAWEHIRGLAAELLAAEEGKAEIKS
Km [8]: 190 µM

More lines, now with the values ahead:

inhibition [1]: 63%
Molecule: Cc1ncc(COP(=O)(O)O)c(CNC(Cc2ccc(O)c(O)c2)C(=O)O)c1O (racemic)

IC50 [3]: 10 µM
Molecule: Cc1ncc(COP(=O)(O)O)c(CN[C@@H](Cc2ccc(O)c(O)c2)C(=O)O)c1O

IC50 [3]: 70 µM
Molecule: Cc1ncc(COP(=O)(O)O)c(CN[C@@H](Cc2ccc(O)cc2)C(=O)O)c1O
